In article PMC10041525, “New Dual Inhibitors of Bacterial Topoisomerases with Broad-Spectrum Antibacterial Activity and In Vivo Efficacy against Vancomycin-Intermediate Staphylococcus aureus” (Journal of Medicinal Chemistry, 2023):
Converted amounts (≈) assume the structure as drawn. Like-named read-outs stand apart in the source and are kept apart here.

Legend:
DNA gyrase from E. coli = target: T1, DNA gyrase from E. coli (Escherichia coli, UniProt P0AES6); test: supercoiling HTS plate assay; assay type: biochemical; details: IC50 [nM] E. coli DNA gyrase
T1 construct: purchased Inspiralis
Procedure: (§1) All compounds were tested for their inhibitory activities against DNA gyrase and topo IV from E. coli in supercoiling and relaxation high-throughput plate assays, respectively. Our new series of inhibitors were then tested against a panel of Gram-positive and Gram-negative bacteria.
(§2) Seven concentrations of the inhibitors were used to determine IC50 values which were then calculated with GraphPad Prism 6.0 software. Three independent measurements were performed to determine IC50 values, and mean values are reported as the final result.

A. baumannii ATCC 17978 = test: MIC broth microdilution (CLSI); assay type: cell-based; details: Acinetobacter baumannii, ATCC17978
Procedure: (§3) Cation-adjusted Mueller Hinton broth 2 (MHBII) was used for bacterial growth under standard laboratory conditions and for antimicrobial susceptibility tests. MHBII broth was prepared by dissolving 22 g of MHBII powder [containing beef extract (3 g), acid hydrolysate of casein (17.5 g), and starch (1.5 g); Becton Dickinson and Co.] in 1 L of water. To prepare MHBII agar, 14 g of agar (Bacto; Molar Chemicals) was added to 1 L of broth.
(§4) Bacterial strains were inoculated onto MHBII agar plates and grown overnight at 37 °C. Next, three individual colonies from each strain were inoculated into 1 mL of MHBII medium and propagated at 37 °C overnight, with agitation at 250 rpm. For Enterococcus sp., the cells were plated in brain–heart infusion [(BHI) medium] agar plates, and BHI broth was used to determine the MICs. […] Following the dilutions, each well was seeded with 5 × 10^4 bacterial cells (in 100 μL final volume). Each measurement was performed in three parallel replicates, and to avoid possible edge effects in the microwell plates, the outside rows (A, H) were filled with sterile medium. Following the inoculations, the plates were covered with the lids and wrapped in polyethylene plastic bags, to minimize evaporation but to allow O2 transfer. […] After incubation, the OD600 of each well was measured using a microplate reader (Synergy 2; Biotek).

S. aureus ATCC 29213 = test: MIC broth microdilution (CLSI); assay type: cell-based; details: Staphylococcus aureus, ATCC29213
Procedure: as §3, §4

E. coli ATCC 25922 = test: MIC broth microdilution (CLSI); assay type: cell-based; details: Escherichia coli, ATCC25922; read-out: MIC
Procedure: as §3, with “MICs (Tables 1 and S1–S3) were determined with a standard serial broth microdilution technique according to Clinical and Laboratory Standards Institute (CLSI) guidelines.[45] Cation-adjusted” for “Cation-adjusted”
(§5) Bacterial strains were inoculated onto MHBII agar plates and grown overnight at 37 °C. Next, three individual colonies from each strain were inoculated into 1 mL of MHBII medium and propagated at 37 °C overnight, with agitation at 250 rpm. For Enterococcus sp., the cells were plated in brain–heart infusion [(BHI) medium] agar plates, and BHI broth was used to determine the MICs. […] The highest final DMSO concentration in the experiments was 0.64% (in the case of the 64 μg/mL concentration of the inhibitor). Following the dilutions, each well was seeded with 5 × 10^4 bacterial cells (in 100 μL final volume). Each measurement was performed in three parallel replicates, and to avoid possible edge effects in the microwell plates, the outside rows (A, H) were filled with sterile medium. Following the inoculations, the plates were covered with the lids and wrapped in polyethylene plastic bags, to minimize evaporation but to allow O2 transfer. The plates were incubated at 37 °C under continuous shaking at 150 rpm for 18 h. After incubation, the OD600 of each well was measured using a microplate reader (Synergy 2; Biotek). The MICs were defined as the antibiotic concentrations which inhibited the growth of the bacterial cultures; that is, the drug concentration where the average OD600 increment of the three technical replicates was below 1.5-fold the background OD increment.

K. pneumoniae ATCC 10031 = test: MIC broth microdilution (CLSI); assay type: cell-based
Procedure: as §3, with “MICs (Tables 1 and S1–S3) were determined with a standard serial broth microdilution technique according to Clinical and Laboratory Standards Institute (CLSI) guidelines.[45] Cation-adjusted” for “Cation-adjusted”
as §5

[1] = system: S. aureus (VISA) ATCC 700699; test: MIC broth microdilution (CLSI); assay type: cell-based; details: Staphylococcus aureus; read-out: MIC
Procedure: as §3, with “MICs (Tables 1 and S1–S3) were determined with a standard serial broth microdilution technique according to Clinical and Laboratory Standards Institute (CLSI) guidelines.[45] Cation-adjusted” for “Cation-adjusted”
as §5

[2] = system: S. aureus (MRSA) ATCC 43300; test: MIC broth microdilution (CLSI); assay type: cell-based; details: Staphylococcus aureus
Procedure: as §3, with “MICs (Tables 1 and S1–S3) were determined with a standard serial broth microdilution technique according to Clinical and Laboratory Standards Institute (CLSI) guidelines.[45] Cation-adjusted” for “Cation-adjusted”
as §5

P. aeruginosa ATCC 27853 = test: MIC broth microdilution (CLSI); assay type: cell-based; details: Pseudomonas aeruginosa, ATCC27853; read-out: MIC
Procedure: as §3, with “MICs (Tables 1 and S1–S3) were determined with a standard serial broth microdilution technique according to Clinical and Laboratory Standards Institute (CLSI) guidelines.[45] Cation-adjusted” for “Cation-adjusted”
as §5

[3] = system: Enterobacter cloacae spp. cloacae ATCC 13047; test: MIC broth microdilution (CLSI); assay type: cell-based; details: Enterobacter cloacae, ATCC13047; read-out: MIC
Procedure: as §3, with “MICs (Tables 1 and S1–S3) were determined with a standard serial broth microdilution technique according to Clinical and Laboratory Standards Institute (CLSI) guidelines.[45] Cation-adjusted” for “Cation-adjusted”
as §5

E. faecium ATCC 700221 = test: MIC broth microdilution (CLSI); assay type: cell-based
Procedure: as §3, with “MICs (Tables 1 and S1–S3) were determined with a standard serial broth microdilution technique according to Clinical and Laboratory Standards Institute (CLSI) guidelines.[45] Cation-adjusted” for “Cation-adjusted”
as §5

[4] = system: Enterococcus faecalis ATCC 29212; test: MIC broth microdilution (CLSI); assay type: cell-based, E. faecalis; details: Enterococcus faecalis, ATCC29212; read-out: MIC
Procedure: as §3, with “MICs (Tables 1 and S1–S3) were determined with a standard serial broth microdilution technique according to Clinical and Laboratory Standards Institute (CLSI) guidelines.[45] Cation-adjusted” for “Cation-adjusted”
as §5

topo IV from E. coli = target: T2, topo IV from E. coli (Escherichia coli, UniProt P20083); test: relaxation HTS plate assay; assay type: biochemical
T2 construct: purchased Inspiralis
Procedure: as §1, §2

physchem = assay type: physicochemical; details: phosphate-buffered saline (PBS)
Procedure: For the PBS, 2.38 g of disodium hydrogen phosphate dodecahydrate, 0.19 g of potassium dihydrogen phosphate, and 8.0 g of sodium chloride were added to distilled water (900 mL), and the solution was mixed overnight. […] Samples were prepared by weighing the exact mass of solid compounds (about 1 mg), and then, the appropriate volume of PBS was added to reach the final concentration of ∼1 mg/mL. […] The supernatant was diluted 3× with a 1:1 mixture of 0.1% TFA in water and acetonitrile and analyzed by HPLC. For the 7-point calibration curves, concentrated stock solutions of the compounds were prepared at concentrations of 10 and 0.5 mM in DMSO, which were diluted with a 1:1 mixture of 0.1% TFA in water and acetonitrile to the desired final concentrations and analyzed by HPLC. Results are given in μM as an average value of two independent experiments. For details on calibration curves, concentrations, analytical method, and HPLC method, see the Supporting Information.
Thermodynamic solubility assay
To determine thermodynamic solubility of compounds in PBS, calibration curves for the assayed compounds were prepared using seven concentrations. First, DMSO stock solutions of compounds at 10 mM and 0.5 mM concentration were prepared and then diluted (0.1% TFA in […]
Quality control (QC) samples were diluted from stock solutions with a 1:1 mixture of 0.1% TFA in water and acetonitrile to final concentrations of 60 µM, 20 µM, and 2 µM (6 µM, 2 µM, and 0.2 µM for 7f or 0.6 µM, 0.2 µM, and 0.02 µM for 7g).
Analytical reversed-phase UHPLC analyses were performed on Thermo Scientific Dionex UltiMate 3000 modular system (Thermo Fisher Scientific Inc., MA, USA). Waters Acquity UPLC® HSS C18 SB column (2.1 × 50 mm, 1.8 μm; Waters, Milford, MA, USA) was used at T […]
Mobile phase consisted of 0.1% trifluoroacetic acid in ultrapure water (solvent A) and acetonitrile […]
The obtained data was processed in Chromeleon CDS software (Thermo Fisher Scientific Inc., […]
Analytical method was tested for accuracy, precision and linear rang. Accuracy was […]
(or 2 or 0.2) µM and 60 (or 6 or 0.6) µM) to their true values and expressed in (%). Values were […]
Method repeatability was determined by calculating the RSD from the separately prepared and analysed quality control samples (n = 3). […] Linearity of the […]
method (1 (or 0.1 or 0.01) µM to 100 (or 10 or 1) µM) was evaluated from the 7-point calibration […]
Solubility was determined in two independent experiments and results were calculated in […]

[5] = read-out: MIC [µg/mL] (A. baumannii ATCC 17978)
[6] = read-out: MIC [µg/mL](S. aureus ATCC 29213)
[7] = Klebsiella pneumoniae, ATCC10031, read-out: MIC
[8] = read-out: MIC [µg/mL](S. aureus MRSA ATCC4330)
[9] = Enterococcus faecium, ATCC700221, read-out: MIC
[10] = read-out: IC50 [nM] E. coli TopoIV

T2 sequence (P0AFI2 whole entry): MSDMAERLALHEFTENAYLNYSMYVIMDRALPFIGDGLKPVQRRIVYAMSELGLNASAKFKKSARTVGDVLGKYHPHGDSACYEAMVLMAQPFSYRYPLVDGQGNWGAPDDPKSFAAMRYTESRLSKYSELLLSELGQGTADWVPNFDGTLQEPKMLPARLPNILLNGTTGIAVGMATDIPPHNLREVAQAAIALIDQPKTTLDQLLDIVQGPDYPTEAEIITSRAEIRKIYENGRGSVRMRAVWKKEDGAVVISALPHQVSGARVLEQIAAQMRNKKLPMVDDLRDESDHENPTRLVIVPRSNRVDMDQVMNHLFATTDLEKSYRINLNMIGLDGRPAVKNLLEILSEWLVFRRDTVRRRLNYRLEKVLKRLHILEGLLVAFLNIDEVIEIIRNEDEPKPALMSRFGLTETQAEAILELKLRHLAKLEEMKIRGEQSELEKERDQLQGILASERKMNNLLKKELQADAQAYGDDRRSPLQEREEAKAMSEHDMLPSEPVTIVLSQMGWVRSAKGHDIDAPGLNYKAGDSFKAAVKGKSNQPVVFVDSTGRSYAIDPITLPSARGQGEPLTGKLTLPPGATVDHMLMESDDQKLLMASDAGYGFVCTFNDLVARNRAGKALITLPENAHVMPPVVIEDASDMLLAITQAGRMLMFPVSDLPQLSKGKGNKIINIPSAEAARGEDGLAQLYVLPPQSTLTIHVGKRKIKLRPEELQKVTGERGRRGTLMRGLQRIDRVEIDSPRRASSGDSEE
T2 sequence (P20083 whole entry): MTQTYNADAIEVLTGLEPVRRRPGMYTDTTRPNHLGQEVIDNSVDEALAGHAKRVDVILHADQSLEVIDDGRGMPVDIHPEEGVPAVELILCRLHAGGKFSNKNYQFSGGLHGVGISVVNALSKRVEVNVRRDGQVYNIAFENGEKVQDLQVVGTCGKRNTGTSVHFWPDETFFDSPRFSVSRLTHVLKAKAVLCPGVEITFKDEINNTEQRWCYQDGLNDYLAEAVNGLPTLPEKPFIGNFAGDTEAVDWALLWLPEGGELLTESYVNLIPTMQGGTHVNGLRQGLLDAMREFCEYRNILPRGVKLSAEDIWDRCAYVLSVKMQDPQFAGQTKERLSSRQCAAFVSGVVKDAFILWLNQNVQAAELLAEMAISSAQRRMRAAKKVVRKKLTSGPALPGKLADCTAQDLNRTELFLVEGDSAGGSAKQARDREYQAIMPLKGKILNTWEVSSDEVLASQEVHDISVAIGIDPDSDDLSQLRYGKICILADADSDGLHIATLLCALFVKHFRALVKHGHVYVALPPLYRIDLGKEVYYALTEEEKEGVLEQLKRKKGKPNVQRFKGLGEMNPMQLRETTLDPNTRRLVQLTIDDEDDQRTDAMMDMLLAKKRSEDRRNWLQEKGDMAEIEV

Row | Structure (SMILES) | IC50 (DNA gyrase from E. coli) [nM] | MIC (A. baumannii ATCC 17978; read-out: MIC) [µg/mL] | MIC (A. baumannii ATCC 17978; [5]) [µg/mL] | MIC (S. aureus ATCC 29213; read-out: MIC) [µg/mL] | MIC (S. aureus ATCC 29213; [6]) [µg/mL] | MIC (E. coli ATCC 25922) [µg/mL] | MIC (K. pneumoniae ATCC 10031; [7]) [µg/mL] | MIC [1] [µg/mL] | MIC ([2]; read-out: MIC) [µg/mL] | MIC [2, 8] [µg/mL] | MIC (P. aeruginosa ATCC 27853) [µg/mL] | MIC [3] [µg/mL] | MIC (E. faecium ATCC 700221; [9]) [µg/mL] | MIC [4] [µg/mL] | IC50 (topo IV from E. coli; [10]) [nM] | IC50 (topo IV from E. coli; IC50) [nM] | IC50 (topo IV from E. coli; IC50 [nM] E. coli TopoIV) [nM] | further results
1 | Cc1[nH]c(C(=O)Nc2nc3c(N4CCCC4)cc(C(=O)O)cc3s2)c(Cl)c1Cl [7j, 2-(3,4-Dichloro-5-methyl-1H-pyrrole-2-carboxamido)-4-(pyrrolidin-1-yl)benzo[d]thiazole-6-carboxylic Acid] | < 10 | 4 | 4 | 0.25 | 0.25 | 16 | 8 | 0.0625 | 0.125 | 0.125 | 4 | > 32 | 0.25 | 0.125 | 68 ± 16 |  |  | IC50 (topo IV from E. coli; read-out: IC50): < 100 nM
2 | Cc1[nH]c(C(=O)Nc2nc3c(N4CCOC4=O)cc(C(=O)O)cc3s2)c(Cl)c1Cl [7m, 2-(3,4-Dichloro-5-methyl-1H-pyrrole-2-carboxamido)-4-(2-oxooxazolidin-3-yl)benzo[d]thiazole-6-carboxylic Acid] | < 10 | > 64 | > 64 | 64 | 64 | > 64 | 32 | 8 | 64 | 64 | > 64 | > 64 | 4 | 4 | 180 ± 16 |  |  | MIC (E. faecium ATCC 700221): 4 µg/mL
3 | Cc1[nH]c(C(=O)Nc2nc3c(N4CCC5(CC4)OCCO5)cc(C(=O)O)cc3s2)c(Cl)c1Cl [7r, 2-(3,4-Dichloro-5-methyl-1H-pyrrole-2-carboxamido)-4-(1,4-dioxa-8-azaspiro[4.5]decan-8-yl)benzo[d]thiazole-6-carboxylic Acid] | 17 ± 11 | 8 | 8 | < 0.0312 | < 0.0312 | 4 | 2 | < 0.0312 | < 0.0312 | < 0.0312 | 8 | 32 | < 0.0312 | < 0.0312 |  |  |  | solubility thermodynamic at 24 h (physchem; pH 7.4, PBS pH 7.4, read-out: thermodynamic solubility, Experiment 1): 26.7 µM (≈ 13.7 µg/mL); solubility thermodynamic at 24 h (physchem; pH 7.4, PBS pH 7.4, read-out: thermodynamic solubility, Experiment 2): 27.3 µM (≈ 13.9 µg/mL); solubility thermodynamic at 24 h (physchem; pH 7.4, thermodynamic solubility (pH = 7.4), PBS, 37 °C, 24 h, mean of two): 27 µM (≈ 13.8 µg/mL)
4 | Cc1[nH]c(C(=O)Nc2nc3c(N4CC[S+]([O-])CC4)cc(C(=O)O)cc3s2)c(Cl)c1Cl [7s, 2-(3,4-Dichloro-5-methyl-1H-pyrrole-2-carboxamido)-4-(1-oxidothiomorpholino)benzo[d]thiazole-6-carboxylic Acid] | < 10 | > 64 | > 64 | > 64 | > 64 | > 64 | 32 | > 64 | 64 | 64 | > 64 | > 64 | 16 | 16 |  | < 100 | 72 ± 3 | 
5 | Cc1[nH]c(C(=O)Nc2nc3c(N4CC[C@H](N)C4)cc(C(=O)O)cc3s2)c(Cl)c1Cl.Cl [8a, (S)-1-(6-Carboxy-2-(3,4-dichloro-5-methyl-1H-pyrrole-2-carboxamido)benzo[d]thiazol-4-yl)pyrrolidin-3-aminium Chloride] | < 10 | > 32 | > 32 | 32 | 32 | > 32 | 4 | 8 | 16 | 16 | > 32 | > 32 | 32 | 32 |  | < 100 | 38 ± 10 | MIC (K. pneumoniae ATCC 10031): 4 µg/mL
